The compounds below were run against T1, catechol-O-methyltransferase (COMT) (Homo sapiens, UniProt P21964) (assay: COMT inhibition assay (HTRF, production of SAH from SAM)). Conditions: table does not say MB-COMT or S-COMT.
T1 construct: M51A variant) was expressed in HEK 293F cells
T1 sequence (P21964 52-271 limits assumed): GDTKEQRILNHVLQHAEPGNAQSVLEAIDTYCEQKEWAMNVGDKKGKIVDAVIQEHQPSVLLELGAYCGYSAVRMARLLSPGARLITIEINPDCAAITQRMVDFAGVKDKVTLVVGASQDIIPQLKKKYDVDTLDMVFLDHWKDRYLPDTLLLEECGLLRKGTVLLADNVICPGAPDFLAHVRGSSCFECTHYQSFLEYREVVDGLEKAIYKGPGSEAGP
Type: biochemical
Description: The ability of compounds to inhibit the activity of catechol-O-methyltransferase (COMT) was determined by a homogenous time-resolved fluorescent (HTRF) assay (Lina et al, 2012; kit from CisBio, Codolet, France). This assay measures the production of S-adenosyl homocysteine (SAH) from the methyl donor S-adenosyl methionine. Recombinant human membrane bound COMT (MB-COMT; M51A variant) was expressed in HEK 293F cells using 293Fectin (Life Technologies, Gent, Belgium) and membranes prepared. The membranes were re-suspended in buffer (20 mM Tris/HCl pH 7; 10 mM glycerol; 2 mM MgCl2; 10 mM NaCl), aliquoted and stored at −80° C. Recombinant human soluble COMT(S-COMT), Val158 variant and a hexa-His tag on the N-terminus, was purified using Ni-NTA chromatography, the His tag removed and stored in buffer as above.
For the human MB-COMT assay, membranes (62 ng/well) were incubated with SAM (20 μM final, CisBio) and dopamine (1.5 μM final; Sigma H8502, Diegem, Belgium) in the presence or absence of varying concentrations (typically 10 concentrations ranging from 10 ? M to 0.1 nM) of compound for 40 min at 37° C. in 384-well microtiter plates (10 ? l per well final volume). The reaction was terminated by the addition of acylation buffer and the amount of SAH produced determined according to manufacturer's instructions. Specific inhibition as that inhibited by a high concentration of tolcapone and all experiments were validated using a control curve to tolcapone.
The human S-COMT assay was performed as above except that 0.15 ng enzyme/well was incubated with SAM ([…]) and dopamine (100 μM final) for 15 min at 37° C. and SAH production determined.
HTRF readings were performed using a Perkin Elmer Envision and results expressed as concentration of SAH produced using a standard curve. Results were analyzed using non-linear regression to the 4-parameter logistic equation and pIC50 (−log 10 concentration of drug which inhibits enzyme activity/SAH production by 50%) determined.

| SMILES | Activity range (pIC50) |
| --- | --- |
| CCc1ccc(CN2CCn3cc(O)c(=O)cc3[C@H]2c2ccccc2)cc1 (single isomer, unassigned) [Example 118] | +++ (three plus signs (+++) is associated with a pIC50 of above about 7) |
| CCc1ccc(CN2CCn3cc(O)c(=O)cc3[C@@H]2c2ccccc2)cc1 (single isomer, unassigned) [Example 119] | +++ (three plus signs (+++) is associated with a pIC50 of above about 7) |
| O=c1cc2n(cc1O)CCN(Cc1ccccc1)C2 [Example 1, 2-benzyl-7-hydroxy-1,2,3,4-tetrahydro-8H-pyrido[1,2-a]pyrazin-8-one] | ++ (two plus signs (++) is associated with a pIC50 of from about 6 to 7) |
| O=c1cc2n(cc1O)CCN(Cc1ccc(C(F)(F)F)cc1)C2 [Example 2, 7-hydroxy-2-[4-(trifluoromethyl)benzyl]-1,2,3,4-tetrahydro-8H-pyrido[1,2-a]pyrazin-8-one] | ++ (two plus signs (++) is associated with a pIC50 of from about 6 to 7) |
| O=c1cc2n(cc1O)CCN(Cc1ccc(F)cc1)C2 [Example 3, 2-[(4-fluorophenyl)methyl]-7-hydroxy-3,4-dihydro-1H-pyrido[1,2-a]pyrazin-8-one] | + (a single plus (+) is associated with a pIC50 of from about 4.5 to 6) |
| O=c1cc2n(cc1O)CCN(CCn1nnc3ccccc31)C2 [Example 4, 2-[2-(benzotriazol-1-yl)ethyl]-7-hydroxy-3,4-dihydro-1H-pyrido[1,2-a]pyrazin-8-one] | + (a single plus (+) is associated with a pIC50 of from about 4.5 to 6) |
| O=c1cc2n(cc1O)CCN(CCn1nc3ccccc3n1)C2 [Example 5, 2-[2-(benzotriazol-2-yl)ethyl]-7-hydroxy-3,4-dihydro-1H-pyrido[1,2-a]pyrazin-8-one] | + (a single plus (+) is associated with a pIC50 of from about 4.5 to 6) |
| O=c1cc2n(cc1O)CCN(Cc1cccc(OC(F)(F)F)c1)C2 [Example 6, 7-hydroxy-2-[3-(trifluoromethoxy)benzyl]-1,2,3,4-tetrahydro-8H-pyrido[1,2-a]pyrazin-8-one] | +++ (three plus signs (+++) is associated with a pIC50 of above about 7) |
| CC(C)(C)c1ccc(CN2CCn3cc(O)c(=O)cc3C2)cc1 [Example 7, 2-(4-tert-butylbenzyl)-7-hydroxy-1,2,3,4-tetrahydro-8H-pyrido[1,2-a]pyrazin-8-one] | +++ (three plus signs (+++) is associated with a pIC50 of above about 7) |
| O=c1cc2n(cc1O)CCN(Cc1ccc(OC(F)(F)F)cc1)C2 [Example 8, 7-hydroxy-2-[4-(trifluoromethoxy)benzyl]-1,2,3,4-tetrahydro-8H-pyrido[1,2-a]pyrazin-8-one] | +++ (three plus signs (+++) is associated with a pIC50 of above about 7) |
| Cc1ccc(CN2CCn3cc(O)c(=O)cc3C2)c(C)c1 [Example 9, 2-(2,4-dimethylbenzyl)-7-hydroxy-1,2,3,4-tetrahydro-8H-pyrido[1,2-a]pyrazin-8-one] | +++ (three plus signs (+++) is associated with a pIC50 of above about 7) |
| CC(C)c1ccc(CN2CCn3cc(O)c(=O)cc3C2)cc1 [Example 10, 7-hydroxy-2-[4-(propan-2-yl)benzyl]-1,2,3,4-tetrahydro-8H-pyrido[1,2-a]pyrazin-8-one] | +++ (three plus signs (+++) is associated with a pIC50 of above about 7) |
| O=c1cc2n(cc1O)CCN(Cc1ccccn1)C2 [Example 11, 7-hydroxy-2-(pyridin-2-ylmethyl)-1,2,3,4-tetrahydro-8H-pyrido[1,2-a]pyrazin-8-one] | ++ (two plus signs (++) is associated with a pIC50 of from about 6 to 7) |
| O=c1cc2n(cc1O)CCN(Cc1ccc(-c3cccnc3)cc1)C2 [Example 12, 7-hydroxy-2-[4-(pyridin-3-yl)benzyl]-1,2,3,4-tetrahydro-8H-pyrido[1,2-a]pyrazin-8-one] | ++ (two plus signs (++) is associated with a pIC50 of from about 6 to 7) |
| CCc1ccc(CN2CCn3cc(O)c(=O)cc3C2)cc1 [Example 13, 2-(4-ethylbenzyl)-7-hydroxy-1,2,3,4-tetrahydro-8H-pyrido[1,2-a]pyrazin-8-one] | +++ (three plus signs (+++) is associated with a pIC50 of above about 7) |
| O=c1cc2n(cc1O)CCN(Cc1cccc3cccnc13)C2 [Example 14, 7-hydroxy-2-(quinolin-8-ylmethyl)-1,2,3,4-tetrahydro-8H-pyrido[1,2-a]pyrazin-8-one] | +++ (three plus signs (+++) is associated with a pIC50 of above about 7) |
| CC(c1ccccc1)N1CCn2cc(O)c(=O)cc2C1 (stereo not shown) [Example 15, 7-hydroxy-2-(1-phenylethyl)-1,2,3,4-tetrahydro-8H-pyrido[1,2-a]pyrazin-8-one] | ++ (two plus signs (++) is associated with a pIC50 of from about 6 to 7) |
| CCc1ccc(C(C)N2CCn3cc(O)c(=O)cc3C2)cc1 (stereo not shown) [Example 16, 2-[1-(4-ethylphenyl)ethyl]-7-hydroxy-1,2,3,4-tetrahydro-8H-pyrido[1,2-a]pyrazin-8-one] | +++ (three plus signs (+++) is associated with a pIC50 of above about 7) |
| N#Cc1ccccc1CN1CCn2cc(O)c(=O)cc2C1 [Example 17, 2-[(7-hydroxy-8-oxo-1,3,4,8-tetrahydro-2H-pyrido[1,2-a]pyrazin-2-yl)methyl]benzonitrile] | ++ (two plus signs (++) is associated with a pIC50 of from about 6 to 7) |
| CCc1ccc(CN2CCn3cc(O)c(=O)cc3C2)cc1[N+](=O)[O-] [Example 18, 2-(4-ethyl-3-nitrobenzyl)-7-hydroxy-1,2,3,4-tetrahydro-8H-pyrido[1,2-a]pyrazin-8-one] | +++ (three plus signs (+++) is associated with a pIC50 of above about 7) |
| O=c1cc2n(cc1O)CCN(CC(c1ccccc1)c1ccccc1)C2 [Example 19, 2-(2,2-diphenylethyl)-7-hydroxy-1,2,3,4-tetrahydro-8H-pyrido[1,2-a]pyrazin-8-one] | ++ (two plus signs (++) is associated with a pIC50 of from about 6 to 7) |
| CCC(CC)CN1CCn2cc(O)c(=O)cc2C1 [Example 20, 2-(2-ethylbutyl)-7-hydroxy-1,2,3,4-tetrahydro-8H-pyrido[1,2-a]pyrazin-8-one] | ++ (two plus signs (++) is associated with a pIC50 of from about 6 to 7) |
| O=c1cc2n(cc1O)CCN(Cc1cc(Cl)cc(Cl)c1)C2 [Example 21, 2-(3,5-dichlorobenzyl)-7-hydroxy-1,2,3,4-tetrahydro-8H-pyrido[1,2-a]pyrazin-8-one] | +++ (three plus signs (+++) is associated with a pIC50 of above about 7) |
| O=c1cc2n(cc1O)CCN(CC1CCCCC1)C2 [Example 22, 2-(cyclohexylmethyl)-7-hydroxy-1,2,3,4-tetrahydro-8H-pyrido[1,2-a]pyrazin-8-one] | ++ (two plus signs (++) is associated with a pIC50 of from about 6 to 7) |
| O=c1cc2n(cc1O)CCN(Cc1ccc(C3CC3)cc1)C2 [Example 23, 2-(4-cyclopropylbenzyl)-7-hydroxy-1,2,3,4-tetrahydro-8H-pyrido[1,2-a]pyrazin-8-one] | +++ (three plus signs (+++) is associated with a pIC50 of above about 7) |
| CC1(C)CCCC2=C1CC(CN1CCn3cc(O)c(=O)cc3C1)CC2 (stereo not shown) [Example 24, 2-[(8,8-dimethyl-1,2,3,4,5,6,7,8-octahydronaphthalen-2-yl)methyl]-7-hydroxy-1,2,3,4-tetrahydro-8H-pyrido[1,2-a]pyrazin-8-one] | +++ (three plus signs (+++) is associated with a pIC50 of above about 7) |
| O=c1cc2n(cc1O)CCN(Cc1ccc(Cl)c(Cl)c1)C2 [Example 25, 2-(3,4-dichlorobenzyl)-7-hydroxy-1,2,3,4-tetrahydro-8H-pyrido[1,2-a]pyrazin-8-one] | +++ (three plus signs (+++) is associated with a pIC50 of above about 7) |
| O=c1cc2n(cc1O)CCN(CC1CCCCCCC1)C2 [Example 26, 2-(cyclooctylmethyl)-7-hydroxy-1,2,3,4-tetrahydro-8H-pyrido[1,2-a]pyrazin-8-one] | ++ (two plus signs (++) is associated with a pIC50 of from about 6 to 7) |
